Data published in US9676715B2, “Bis-indolic derivatives, a process for preparing the same and their uses as a drug” (UNIVERSITE JOSEPH FOURIER, priority 2011, dated 2017).

Key:
[1] = tested on: S. aureus ATCC 106414 (VISA); test: MIC, microdilution method (9.1); type: cell-based, Staphylococcus aureus; details: Staphylococcus aureus, read after 18 h, read-out: MIC
Experimental: (§1) The microdilution method recommended by the Clinical and Laboratory Standard Institute [M07-A8, Vol. 29, No. 2] was used. The activity of indolic compounds was tested against 29 bacterial strains belonging to 17 different species and 12 different genera (Staphylococcus, Streptococcus, Enterococcus, Listeria, Bacillus, Haemophilus, Escherichia, Klebsiella, Enterobacter, Serratia, Pseudomonas, and Acinetobacter). Bacterial inocula were prepared in Mueller Hinton broth (MH2, bioMérieux, Marcy L'Etoile, France), supplemented with 10% sheep blood for fastidious species (i.e., Streptococcus pneumoniae and Haemophilus influenzae). They were dispensed in 96 well microtiter plates (5×10^5 CFU/ml of final inoculum). Indolic compounds were added to the wells as to obtain two-fold serial concentrations (0.50-128 mg/L of final concentrations). Plates were incubated at 37° C. in ambient air, or at 37° C. in 5% CO2 enriched atmosphere for fastidious species. […] Drug-free cultures served as growth controls. Cultures receiving gentamicin, ciprofloxacin or cefotaxime served as positive controls.

S. aureus ATCC 25923 = test: MIC, microdilution method (9.1); type: cell-based, Staphylococcus aureus; details: Staphylococcus aureus, ATCC25923, read after 18 h, read-out: MIC
Experimental: as §1

S. aureus ATCC 29213 = test: MIC, microdilution method (9.1); type: cell-based, Staphylococcus aureus; details: Staphylococcus aureus, ATCC29213, read after 18 h, read-out: MIC
Experimental: as §1

[2] = tested on: S. aureus ATCC 33592 (MRSA); test: MIC, microdilution method (9.1); type: cell-based, Staphylococcus aureus; details: Staphylococcus aureus, read after 18 h, read-out: MIC
Experimental: as §1

S. aureus ATCC 6538 = test: MIC, microdilution method (9.1); type: cell-based, Staphylococcus aureus; details: Staphylococcus aureus, ATCC6538, read after 18 h, read-out: MIC
Experimental: as §1

S. aureus ATCC 9144 = test: MIC, microdilution method (9.1); type: cell-based, Staphylococcus aureus; details: Staphylococcus aureus, ATCC9144, read after 18 h, read-out: MIC
Experimental: as §1

S. aureus CIP 103428 = test: MIC, microdilution method (9.1); type: cell-based, Staphylococcus aureus; details: Staphylococcus aureus, CIP103428, read after 18 h, read-out: MIC
Experimental: as §1

[3] = tested on: S. aureus CIP 65.25 (MRSA); test: MIC, microdilution method (9.1); type: cell-based, Staphylococcus aureus; details: Staphylococcus aureus, read after 18 h, read-out: MIC
Experimental: as §1

S. aureus CIP 65.6 = test: MIC, microdilution method (9.1); type: cell-based, Staphylococcus aureus; details: Staphylococcus aureus, CIP65, read after 18 h, read-out: MIC
Experimental: as §1

S. aureus SA-1199B = test: MIC, microdilution method (9.1); type: cell-based, Staphylococcus aureus; details: Staphylococcus aureus, SA1199B, 18 h
Experimental: as §1

[4] = tested on: S. epidermidis ATCC 12228; test: MIC, microdilution method (9.1); type: cell-based, Staphylococcus epidermidis; details: Staphylococcus epidermidis, ATCC12228, read after 18 h, read-out: MIC
Experimental: as §1

[5] = tested on: S. epidermidis CIP 103627; test: MIC, microdilution method (9.1); type: cell-based, Staphylococcus epidermidis; details: Staphylococcus epidermidis, CIP103627, read after 18 h, read-out: MIC
Experimental: as §1

S. epidermidis CIP 81.55 = test: MIC, microdilution method (9.1); type: cell-based, Staphylococcus epidermidis; details: Staphylococcus epidermidis, CIP81, read after 18 h, read-out: MIC
Experimental: as §1

S. pneumoniae ATCC 6303 = test: MIC, microdilution method (9.1); type: cell-based, Streptococcus pneumoniae; details: Streptococcus pneumoniae, ATCC6303, 10% sheep blood, 5% CO2, 18 h, read-out: MIC
Experimental: as §1

[6] = tested on: S. agalactiae (group B) ATCC 12400; test: MIC, microdilution method (9.1); type: cell-based, Streptococcus agalactiae; details: Streptococcus agalactiae, ATCC12400, 18 h, read-out: MIC
Experimental: as §1

[7] = tested on: S. pyogenes (group A) CIP 104226; test: MIC, microdilution method (9.1); type: cell-based, Streptococcus pyogenes; details: Streptococcus pyogenes, CIP104226, 18 h, read-out: MIC
Experimental: as §1

S. mitis CIP 103335 = test: MIC, microdilution method (9.1); type: cell-based, Streptococcus mitis; details: Streptococcus mitis, CIP103335, 18 h, read-out: MIC
Experimental: as §1

E. faecium CIP 54.32 = test: MIC, microdilution method (9.1); type: cell-based, Enterococcus faecium; details: Enterococcus faecium, CIP54, 18 h, read-out: MIC
Experimental: as §1

E. faecalis ATCC 29212 = test: MIC, microdilution method (9.1); type: cell-based, Enterococcus faecalis; details: Enterococcus faecalis, ATCC29212, 18 h, read-out: MIC
Experimental: as §1

[8] = tested on: Acinetobacter baumanii ATCC 19606; test: MIC, microdilution method (9.1); type: cell-based; details: Acinetobacter baumannii, ATCC19606, 18 h, read-out: MIC
Experimental: as §1

[9] = tested on: Bacillus subtilis CIP 5262; test: MIC, microdilution method (9.1); type: cell-based; details: CIP5262, 18 h, read-out: MIC
Experimental: as §1

[10] = tested on: Enterobacter cloacae ATCC13047; test: MIC, microdilution method (9.1); type: cell-based; details: 18 h
Experimental: as §1

[11] = tested on: Escherichia coli ATCC 25922; test: MIC, microdilution method (9.1); type: cell-based; details: ATCC25922, 18 h
Experimental: as §1

[12] = tested on: Haemophilus influenzae ATCC 49766; test: MIC, microdilution method (9.1); type: cell-based; details: ATCC49766; Haemophilus influenzae ATCC 49766; 10% sheep blood, 5% CO2; 18 h; read-out: MIC
Experimental: as §1

[13] = tested on: Klebsiella pneumoniae API ATCC 35657; test: MIC, microdilution method (9.1); type: cell-based; details: ATCC35657, 18 h, read-out: MIC
Experimental: as §1

[14] = tested on: Listeria innocua CIP 80.11; test: MIC, microdilution method (9.1); type: cell-based; details: CIP80, 18 h, read-out: MIC
Experimental: as §1

[15] = tested on: Pseudomonas aeruginosa CIP 5933; test: MIC, microdilution method (9.1); type: cell-based; details: CIP5933, 18 h, read-out: MIC
Experimental: as §1

S. pneumoniae ATCC 49619 = test: MIC, microdilution method (9.1); type: cell-based; details: Streptococcus pneumoniae, ATCC49619, 10% sheep blood, 5% CO2, 18 h
Experimental: as §1

[16] = tested on: Serratia marcescens CIP 103551; test: MIC, microdilution method (9.1); type: cell-based; details: CIP103551, 18 h
Experimental: as §1

[17] = tested on: HCT116 (human colon tumor); test: In vitro cytotoxicity; type: cell-based; details: read-out: % of cellular growth inhibition; for inhibition at 10 µM: HCT-116, 10^−5 M; for inhibition at 1 µM: HCT-116, 10^−6 M
Experimental: (§2) In vitro cytotoxicity was assayed on three cell lines—KB (human mouth carcinoma), MCR5 (human lung fibroblast) and HCT116 (human colon tumor). Results are presented in table IV as % of cellular growth inhibition in presence of 10^−5 M and 10^−6 M of the tested bis-indolic derivatives.

[18] = tested on: KB (human mouth carcinoma); test: In vitro cytotoxicity; type: cell-based; details: read-out: % of cellular growth inhibition; for inhibition at 10 µM: 10^−5 M; for inhibition at 1 µM: 10^−6 M
Experimental: as §2

[19] = tested on: MRC5 (human lung fibroblast); test: In vitro cytotoxicity; type: cell-based; details: read-out: % of cellular growth inhibition; for inhibition at 10 µM: 10^−5 M; for inhibition at 1 µM: 10^−6 M
Experimental: as §2

[20] = tested on: HCT116 (human colon tumor); test: In vitro cytotoxicity; type: cell-based; details: HCT-116, HCT116, from 100 μM to 0.005 μM in DMSO, duplicate

CC(C)(C)OC(=O)NCC(NC(=O)c1c[nH]c2cc(Br)ccc12)c1c[nH]c2ccc(Br)cc12 (centres unmarked) [Compound 3g, tert-Butyl(2-(5-bromo-1H-indol-3-yl)-2-(6-bromo-1H-indolyl-3-carboxamido)ethyl)carbamate]
83 ± 10%: inhibition at 10 µM [19]
32 µg/mL: MIC (S. pneumoniae ATCC 6303) | MIC [9] | MIC (S. pneumoniae ATCC 49619)
6.06 µM: IC50 ([20]; second value)
5.48 µM: IC50 ([20]; first value)
86 ± 2%: inhibition at 10 µM [17]
98 ± 1%: inhibition at 10 µM [18]
0%: inhibition at 1 µM [18] | inhibition at 1 µM [19]
64 µg/mL: MIC [6] | MIC [7] | MIC (S. mitis CIP 103335) | MIC [12]
2 µg/mL: MIC (S. aureus ATCC 25923) | MIC (S. aureus ATCC 29213) | MIC [2] | MIC (S. aureus ATCC 6538) | MIC (S. aureus ATCC 9144) | MIC (S. aureus CIP 65.6) | MIC (S. aureus SA-1199B) | MIC [5] | MIC (S. epidermidis CIP 81.55)
1 µg/mL: MIC [1] | MIC (S. aureus CIP 103428) | MIC [3] | MIC [4]
128 µg/mL: MIC [14]
9%: inhibition at 1 µM [17]
> 128 µg/mL: MIC (E. faecium CIP 54.32) | MIC (E. faecalis ATCC 29212) | MIC [8] | MIC [10] | MIC [11] | MIC [13] | MIC [15] | MIC [16]

CC(C)(C)OC(=O)NCC(NC(=O)c1c[nH]c2ccc(Br)cc12)c1c[nH]c2cc(Br)ccc12 (centres unmarked) [Compound 3h, tert-Butyl (2-(6-bromo-1H-indol-3-yl)-2-(5-bromo-1H-indolyl-3-carboxamido)ethyl)carbamate]
4.11 µM: IC50 ([20]; second value)
16 µg/mL: MIC [12]
100 ± 1%: inhibition at 10 µM [18]
1 µg/mL: MIC [1] | MIC (S. aureus ATCC 25923) | MIC (S. aureus ATCC 29213) | MIC (S. aureus ATCC 6538) | MIC (S. aureus ATCC 9144) | MIC [3] | MIC [4] | MIC (S. epidermidis CIP 81.55)
> 128 µg/mL: MIC (E. faecalis ATCC 29212) | MIC [8] | MIC [10] | MIC [11] | MIC [13] | MIC [15] | MIC [16]
92 ± 1%: inhibition at 10 µM [19]
100 ± 3%: inhibition at 10 µM [17]
0%: inhibition at 1 µM [17] | inhibition at 1 µM [18] | inhibition at 1 µM [19]
32 µg/mL: MIC (S. pneumoniae ATCC 6303) | MIC [6] | MIC [7] | MIC (S. mitis CIP 103335) | MIC (E. faecium CIP 54.32) | MIC [9] | MIC [14] | MIC (S. pneumoniae ATCC 49619)
2 µg/mL: MIC [2] | MIC (S. aureus CIP 103428) | MIC (S. aureus CIP 65.6) | MIC (S. aureus SA-1199B) | MIC [5]
3.33 µM: IC50 ([20]; first value)
